Reference: PubChem BioAssay (NCI)
Several values for one entry are separate records, joined by “and”; a condition that tells them apart may be missing. Equal entries are not always repeated.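 In this assay, cells in 96-well plates receive the compound at five concentrations for 48 hours. Endpoints are linearly interpolated between the surrounding concentrations. Here, GI50 denotes the concentration required for 50% inhibition of growth. TGI: concentration producing complete growth inhibition.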

Key:
Assay in all cases: NCI-60 cell line screen, 48 h
HS 578T breast = tested on: HS 578T breast
PC-3 prostate = tested on: PC-3 prostate
MCF7 breast = tested on: MCF7 breast
RXF-631 renal = tested on: RXF-631 renal
DMS 114 small cell lung = tested on: DMS 114 small cell lung
DLD-1 colon = tested on: DLD-1 colon
DMS 273 small cell lung = tested on: DMS 273 small cell lung
MDA-N = tested on: MDA-N
HOP-18 NSCLC = tested on: HOP-18 NSCLC

Compound | GI50 (HS 578T breast) | TGI (HS 578T breast) | GI50 (PC-3 prostate) | TGI (PC-3 prostate) | GI50 (MCF7 breast) | TGI (MCF7 breast) | TGI (RXF-631 renal) | TGI (DMS 114 small cell lung) | TGI (DLD-1 colon) | TGI (DMS 273 small cell lung) | GI50 (MDA-N) | TGI (MDA-N) | TGI (HOP-18 NSCLC)
N/C(=N\O)c1ncc(-c2ccc(C(F)(F)F)cc2)c(NC2CCCCCC2)n1 | 5.67 µM | 23.2 µM | 5.34 µM and 1.92 µM | 12.1 µM | 4.65 µM and 1.43 µM | 12.3 µM | – | – | – | – | – | – | –
CCCNc1nc(N(C)O)nc(N(C)O)n1 | 6.51 µM | > 100 µM | 6.66 µM | > 100 µM | 2.44 µM | > 100 µM | – | – | – | – | – | – | –
N#Cc1ccc(Oc2nccc(-c3c(-c4ccc(F)cc4)ncn3C3CCNCC3)n2)cc1 | > 25 µM | > 25 µM | 13.9 µM | > 25 µM | 10.7 µM | > 25 µM | – | – | – | – | – | – | –
CC(=O)OC1(C#N)CC2OC1C1C2N1C(=O)c1ccccc1 (centres undefined) | – | – | – | – | – | – | > 100 µM | > 100 µM | > 100 µM | – | – | – | –
Cc1ccc2nc3c(Cl)cc(=O)cc-3sc2c1 | – | – | – | – | – | – | > 100 µM | 48.1 µM | – | 39.3 µM | – | – | –
COc1ccc(CN2c3ccccc3Sc3ccccc32)cc1F | 0.458 µM | > 100 µM | 0.448 µM | > 100 µM | 0.464 µM | > 100 µM | – | – | – | – | – | – | –
CC1=C(N2CC2)C(=O)C(CO)=C(N2CC2)C1=O | 0.139 µM | 0.352 µM and 1.43 µM | 0.0159 µM and < 0.0213 µM | 0.0791 µM | 0.00487 µM | 0.0938 µM and 0.0967 µM | – | – | – | – | 0.0284 µM and 0.0259 µM | 0.138 µM and 0.106 µM | –
COc1cc2cc3c4c(cc(OC)c(OC)c4c2cc1OC)CCN3C(=O)CCCC(=O)O | – | – | – | – | – | – | – | > 100 µM | > 100 µM | > 100 µM | – | – | –
COC1=C(OC)C(=O)C(/C=C(\C)C(=O)O)=C(C)C1=O | > 100 µM | > 100 µM | > 100 µM | > 100 µM | > 100 µM | > 100 µM | – | – | – | – | – | – | –
COc1cc(/C=C/C(=O)C(=Cc2ccc(F)c(F)c2)C(=O)/C=C/c2ccc(O)c(OC)c2)ccc1O | 3.25 µM | 15.4 µM | 2.49 µM | 8.31 µM | 2.57 µM | 11 µM | – | – | – | – | – | – | –
NC(=S)N/N=C(/CC(=O)c1ccc([N+](=O)[O-])cc1)C(=O)Nc1ncc([N+](=O)[O-])s1 | – | – | – | – | – | – | > 100 µM | > 100 µM | > 100 µM | – | – | – | –
Nc1nnc2nc(CC(=O)/C=C/c3ccccc3)c(=O)[nH]n12 | – | – | – | – | – | – | > 100 µM | > 100 µM | > 100 µM | > 100 µM | – | – | –
Cc1c2ccccc2c(C)c2c3c(ccc12)C(=O)C=CC3=O | – | – | – | – | – | – | – | 25.8 µM | 40.8 µM | > 100 µM | – | – | > 69.3 µM
CC1C2Cc3ccc(O)cc3C1(C)CCN2C (centres undefined) | – | > 100 µM | – | > 100 µM | – | > 100 µM | – | – | – | – | – | > 100 µM | –
CC(C)(O)[C@@H]1CCC(C)([C@H]2[C@@H](O)CC3(C)C4CC(OC5OC(CO)C(O)C(O)C5O)C5C(C)(C)[C@@H](OC6OCC(O)C(O)C6O)CC[C@@]56C[C@@]46CC[C@]23C)O1 (some centres undefined) | – | – | – | – | – | – | – | > 100 µM | > 100 µM | > 100 µM | – | – | > 100 µM
CCOc1ccccc1NC(=O)C(=O)CC(=O)C1=C(C)Nc2ccccc2S1 | – | – | – | – | – | – | – | – | > 100 µM | > 100 µM | – | – | –
CCCOc1ccc(/C(Cl)=C(\C=O)c2ccc(OC)c(OC)c2)cc1OCCC | – | – | – | – | – | – | – | 25.3 µM | > 100 µM | 40.1 µM | – | – | > 100 µM

Compound | GI50 (HS 578T breast) | TGI (HS 578T breast) | GI50 (PC-3 prostate) | TGI (PC-3 prostate) | GI50 (MCF7 breast) | TGI (MCF7 breast) | TGI (RXF-631 renal) | TGI (DMS 114 small cell lung) | TGI (DLD-1 colon) | TGI (DMS 273 small cell lung) | GI50 (MDA-N) | TGI (MDA-N) | TGI (HOP-18 NSCLC)
O=C(N[C@H](c1ccc(Cl)c(Cl)c1)C1CNC1)c1ccc2cnccc2c1 | 1 µM | 4.71 µM | 3.48 µM | 16.1 µM | 3.25 µM | 13.9 µM | – | – | – | – | – | – | –
OC1CN(OC/C=C/c2ccccc2)CC(O)C1O (centres undefined) | – | – | – | – | – | – | – | > 100 µM | > 100 µM | > 100 µM | – | – | > 100 µM
COc1ccc(Nc2c3ccccc3nc3c2c2ccccc2n3C)cc1 | 46.4 µM | > 100 µM | 11.1 µM | 54.2 µM | 28.3 µM | 86.3 µM | – | – | – | – | – | – | –
COc1ccc2c(c1)C(=O)c1c-2n(CCCN=[N+]=[N-])c(=O)c2ccccc12 | 62.4 µM | > 100 µM | 51.4 µM | > 100 µM | 1.5 µM | > 100 µM | – | – | – | – | – | – | –
COc1ccc2c(=O)c([Se]c3coc4cc(OC)ccc4c3=O)coc2c1 | – | – | – | – | – | – | – | 42.9 µM | > 100 µM | > 100 µM | – | – | > 100 µM
CC(C)c1cc(C(C)C)c(S(=O)(=O)NN)c(C(C)C)c1 | – | – | – | – | – | – | – | > 100 µM | > 100 µM | > 100 µM | – | – | > 100 µM
CCN1CCN(CCOc2ccc(CNc3ccc4nc(CCC5CCCCC5)[nH]c4c3)cc2)CC1 | 1.61 µM | 4.85 µM | 2.02 µM | 5.89 µM | 1.8 µM | 5.84 µM | – | – | – | – | – | – | –
Clc1ccc(-c2nc3c(-c4ccc(Cl)cc4)nc(-c4ccccc4)cn3c2-c2ccc(Cl)cc2)cc1 | 10.8 µM | > 50 µM | > 50 µM | > 50 µM | > 50 µM | > 50 µM | – | – | – | – | – | – | –
CC(=O)NNc1nc(C)c(C(=O)NNC(=O)C(=O)Nc2ccc(C)c(C)c2)s1 | – | – | – | – | – | – | – | > 100 µM | > 100 µM | > 100 µM | – | – | > 100 µM
C=C1CC[C@@H]2C(C)(C)[C@@H](O)CC[C@@]2(C)[C@@H]1COc1ccc2ccc(=O)oc2c1 | 15.4 µM | 49.5 µM | 5.71 µM | 21.8 µM | 8.02 µM | 24.7 µM | – | – | – | – | – | – | –
Cc1cccc(CN(C)c2ccc(CO)c(Cl)c2)c1 | 22.5 µM | > 83.3 µM | 22.2 µM | 96.3 µM | 1.54 µM | 21.3 µM | – | – | – | – | – | – | –
CCCCCCN(CCCCCC)CCCNc1nccc2ccccc12 | 2.13 µM | 5.66 µM | 2 µM | 5.54 µM | 1.56 µM | 3.46 µM | – | – | – | – | – | – | –
C/C(=N/O)C1CC=C(S(=O)(=O)c2ccccc2)C1 (centres undefined) | – | – | – | – | – | – | – | – | > 100 µM | > 100 µM | – | – | –
Cc1ccc(-n2c3c(c4c(CN5CCCCC5)c(O)ccc42)CCc2ccccc2C3=O)cc1 | > 100 µM | > 100 µM | 59.2 µM | > 100 µM | > 100 µM | > 100 µM | – | – | – | – | – | – | –
CC(=O)OC1C=CC2CCN3C(=O)c4cc5c(cc4[C@H]1C23)OCO5 (some centres undefined) | – | – | – | – | – | – | – | > 100 µM | > 100 µM | > 100 µM | – | – | –
O=C1NC(=NCC(CO)c2ccccc2)S/C1=C\c1ccc2ncccc2c1 (centres undefined) | 14.7 µM | > 25 µM | > 25 µM | > 25 µM | 12.4 µM | > 25 µM | – | – | – | – | – | – | –
